# Test results published in patent US20200062773A1, “4,4a,5,7-TETRAHYDRO-3H-FURO[3,4-b]PYRIDINYL COMPOUNDS” (Janssen Pharmaceutlca NV, priority 2016, published 2020).
# Columns and labels:
# [1] = Phase 2 trial, development terminated June 2013; cited from earlier work
# [2] = test system: Abeta 1-42 produced and secreted into the medium of human neuroblastoma SKNBE2 cells; assay: Cellular αLisa assay in SKNBE2 cells; format: cell-based; settings: human neuroblastoma SKNBE2 cells expressing hAPP695, 18 hours incubation
# Outline: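 Human neuroblastoma SKNBE2 cells expressing wild-type hAPP695 were exposed to compound for 18 hours. Secreted Abeta 1-42 in medium was quantified by sandwich αLisa (AbN/25 and cAb42/26 beads; 1 h, excitation 650 nm, emission 615 nm). IC50 came from a least-squares curve fit of % Controlmin against concentration.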
# [3] = test system: Abeta 1-42 in cerebrospinal fluid (CSF); assay: Pharmacology in the beagle dog: beta-amyloid profile in CSF after a single dose; format: in vivo; settings: for % Mean decrease in Abeta 1-42 at 8 h post dosing compared to own baseline / % Mean decrease in Abeta 1-42 at 25 h post dosing compared to own baseline / % Mean decrease in Abeta 1-42 at 49 h post dosing compared to own baseline: beagle dog CSF
# Experimental: Pharmacology in the Beagle Dog
# (§1) Test compounds were tested to evaluate the effect on the beta-amyloid profile in cerebrospinal fluid (CSF) of dogs after a single dose, in combination with pharmacokinetic (PK) follow up and limited safety evaluation. For each of compound 4b, 3c, 7d, or 14, four beagle dogs (2 males, 2 females) were dosed with vehicle (1 ml/kg of an aqueous solution of 20% cyclodextrin) and 12, 8, 4 and 4 beagle dogs (2 males and 2 females per dosage group), were dosed with test compounds as follows:
# (§2) CSF was taken in conscious animals directly from the lateral ventricle via a cannula which was screwed in the skull and covered with subcutaneous tissue and skin, before and at 4, 8, 25 and 49 hours after dosing. Eight hours after dosing the animals got access to their regular meal for 30 minutes. Blood was taken for PK follow up (0.5, 1, 2, 4, 8, 25 and 49 hours) and serum samples for biochemistry were taken before and at 8 and 25 h after dosing. The CSF samples were used for measurement of Abeta 1-42.
# [4] = Limited safety evaluation in the beagle dog (observations, serum biochemistry); format: in vivo; settings: one female dog dosed at 0.08 mg/kg, single dose, 8 h post dosing
# Experimental: as §1
# as §2, with “Blood was taken for PK follow up (0.5, 1, 2, 4, 8, 25 and 49 hours) and serum samples for biochemistry were taken before and at 8 and 25 h after dosing.” left out
# BACE2 = target: T1, BACE2 (Homo sapiens, UniProt Q9Y5Z0); assay: BACE2 biochemical FRET based assay; settings: recombinant BACE2, 450 minutes at room temperature, pH 5.0
# T1 construct: recombinant BACE2 protein in a final concentration of 0.4 μg/ml
# T1 sequence (Q9Y5Z0 63-518): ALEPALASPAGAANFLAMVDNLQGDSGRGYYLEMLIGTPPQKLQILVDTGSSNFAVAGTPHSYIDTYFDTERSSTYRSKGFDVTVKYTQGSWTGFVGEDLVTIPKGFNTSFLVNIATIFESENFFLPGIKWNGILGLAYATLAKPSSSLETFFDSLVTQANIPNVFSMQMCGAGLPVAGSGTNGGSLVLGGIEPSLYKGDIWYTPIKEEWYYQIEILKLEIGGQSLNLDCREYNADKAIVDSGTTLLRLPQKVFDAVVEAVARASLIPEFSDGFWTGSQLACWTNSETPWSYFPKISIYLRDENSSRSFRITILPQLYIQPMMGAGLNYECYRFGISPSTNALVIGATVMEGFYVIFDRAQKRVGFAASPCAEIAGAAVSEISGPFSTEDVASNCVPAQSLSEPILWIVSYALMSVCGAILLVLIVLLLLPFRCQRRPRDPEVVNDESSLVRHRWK
# Outline: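 Recombinant BACE2 (0.4 μg/ml) incubated 450 min at room temperature with 10 μM Mca/Dnp Swedish-APP FRET substrate in 50 mM citrate pH 5.0, 0.05% PEG, no DMSO. Fluorescence (ex 320/em 405 nm) difference T450 minus T0; IC50 from least-squares fit of % control versus concentration.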
# BACE1 = target: T2, BACE1 (Homo sapiens, UniProt P56817); assay: BACE1 biochemical FRET based assay; settings: Method 1: recombinant BACE1 1 μg/ml, 120 min at room temperature, pH 5.0
# T2 construct: recombinant BACE1 protein in a final concentration of 1 μg/ml
# Outline: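 Recombinant BACE1 (1 μg/ml) incubated 120 min at room temperature with 10 μm Mca/Dnp-quenched 13-mer APP Swedish-mutant peptide in 40 mM citrate pH 5.0, 0.04% PEG, 4% DMSO. Fluorescence (ex 320/em 405 nm) change between T0 and T120 gives activity; IC50 from least-squares curve fit of % control versus concentration.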
# T2 sequence (P56817 46-501): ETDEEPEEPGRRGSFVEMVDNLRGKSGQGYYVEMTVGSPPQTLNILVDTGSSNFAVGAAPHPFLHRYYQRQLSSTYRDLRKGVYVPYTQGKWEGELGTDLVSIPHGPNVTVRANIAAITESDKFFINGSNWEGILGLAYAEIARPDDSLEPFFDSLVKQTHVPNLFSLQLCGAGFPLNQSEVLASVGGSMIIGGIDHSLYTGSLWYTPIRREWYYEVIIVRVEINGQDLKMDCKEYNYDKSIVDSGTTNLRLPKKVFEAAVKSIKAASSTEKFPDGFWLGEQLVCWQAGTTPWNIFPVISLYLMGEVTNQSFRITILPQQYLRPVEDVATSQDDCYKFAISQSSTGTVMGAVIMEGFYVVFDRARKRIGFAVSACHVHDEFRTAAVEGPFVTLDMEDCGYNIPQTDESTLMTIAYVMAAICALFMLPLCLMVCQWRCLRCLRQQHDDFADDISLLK
SMILES,liver abnormalities (patients affected) [1],Cellular αLisa assay in SKNBE2 cells Abeta 42 pIC50 [2],% Mean decrease in Abeta 1-42 at 8 h post dosing compared to own baseline ([3]; single dose 0.08 mg/kg),% Mean decrease in Abeta 1-42 at 25 h post dosing compared to own baseline ([3]; single dose 0.08 mg/kg),% Mean decrease in Abeta 1-42 at 49 h post dosing compared to own baseline ([3]; single dose 0.08 mg/kg),% Mean decrease in Abeta 1-42 at 8 h post dosing compared to own baseline ([3]; single dose 0.31 mg/kg),% Mean decrease in Abeta 1-42 at 25 h post dosing compared to own baseline ([3]; single dose 0.31 mg/kg),% Mean decrease in Abeta 1-42 at 49 h post dosing compared to own baseline ([3]; single dose 0.31 mg/kg),"EC50 Aβ42 ([3]; beagle dog, CSF Abeta 1-42 after single dose)",Observations [4],Biochemical FRET based assay pIC50 (BACE2),Biochemical FRET based assay pIC50 (BACE1)
NC1=N[C@@]2(c3cc(NC(=O)c4ccc(F)cn4)ccc3F)COC[C@H]2CS1 [LY2886721],four out of 45,–,–,–,–,–,–,–,–,–,–,–
C[C@@]1(C#N)C[C@@H]2[C@@H](C(F)(F)F)OC[C@]2(c2cc(NC(=O)c3ccc(C#N)cn3)ccc2F)N=C1N [3c],–,8.52,29%,27%,NR (NR means % decrease < 20),64%,62%,50%,0.019 mg/L,moderate diarrhea,7.97,9.06
